Laboratory results as given in patent US11179412B2, “Methods of treating conditions involving elevated inflammatory response” (University of Pittsburgh—Of the Commonwealth System of …, priority 2017, dated 2021).

Tests used:
[1] = test system: STING signaling (TBK1, IRF3, p65, ALK, EGFR, AKT phosphorylation) in RAW264.7 cells; experiment: Western blot of STING pathway protein phosphorylation, RAW264.7; type: cell-based, mouse; settings: 16 hours, 10 μM
Method: (§1) For immunoblotting, cells were lysed in Cell Lysis Buffer (#9803, Cell Signaling Technology) with protease inhibitor cocktail (Promega), phosphatase inhibitor cocktail (Sigma), and 1 mM Na3VO4 (70). Cleared lysates were resolved by SDS-PAGE (#3450124, Bio-Rad) and then transferred onto PVDF membranes (#1704273, Bio-Rad). The membranes were blocked with Tris-buffered saline Tween 20 (TBST) containing 5% skim milk for 1 h at room temperature and then incubated with the indicated primary antibodies (1:1000-1:5000) overnight at 4° C. After being washed with TBST, the membranes were incubated with an HRP-linked anti-mouse IgG secondary antibody (#7076, Cell Signaling Technology) or HRP-linked anti-rabbit IgG secondary antibody (#7074, Cell Signaling Technology) for 1 h at room temperature. The membranes were washed three times in TBST and then visualized and analyzed with a ChemiDoc Touch Imaging System (#1708370, Bio-Rad). The intensities of bands were analyzed with Image Lab software.

[2] = test system: STING signaling (TBK1, IRF3, p65, ALK, EGFR, AKT phosphorylation) in iBMDMs; experiment: Western blot of STING pathway protein phosphorylation, iBMDMs; type: cell-based, mouse; settings: 16 hours, 10 μM
Method: as §1

[3] = test system: STING signaling (TBK1, IRF3, p65, ALK, EGFR, AKT phosphorylation) in THP1 cells; experiment: Western blot of STING pathway protein phosphorylation, THP1; type: cell-based, human; settings: 16 hours, 10 μM
Method: as §1

[4] = molecular target: T1, interaction between ALK and EGFR (Mus musculus, UniProt P97793+Q01279); experiment: IP analysis of the interaction between ALK and EGFR, iBMDMs; type: cell-based; settings: 3′3′-cGAMP or c-di-AMP 10 μg/ml, 16 hours, 10 μM
T1 construct: endogenous in cells; host or cells: iBMDMs
Method: Concentrations of proteins in the supernatant were determined by bicinchoninic acid assay. […] Following incubation, agarose/sepharose beads were washed extensively with PBS and proteins were eluted by boiling in 2× sodium dodecyl sulfate (SDS) sample buffer before SDS-PAGE electrophoresis.

[5] = test system: STING activation (IFNβ release) in iBMDMs; experiment: IFNβ release ELISA after STING ligand (or LPS) stimulation, iBMDMs; type: cell-based, mouse; settings: iBMDMs; 3′3′-cGAMP 10 μg/ml, 16 hours; compound 10 μM
Procedure, shortened: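 IFNβ released into the medium was quantified by ELISA (mouse or human kit) after iBMDM stimulation with the canonical STING agonist 3′3′-cGAMP or with LPS.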

[6] = molecular target: T2, interaction between ALK and EGFR (Homo sapiens, UniProt P00533+Q9UM73); experiment: IP analysis of the interaction between ALK and EGFR, THP1; type: cell-based; settings: 3′3′-cGAMP or c-di-AMP 10 μg/ml, 16 hours, 10 μM
T2 construct: endogenous in cells; host or cells: THP1 cells
Method: For immunoprecipitation, cells were lysed at 4° C. in ice-cold modified radioimmunoprecipitation lysis buffer (#9806, Cell Signaling Technology) and cell lysates were cleared by centrifugation (12,000 g, 10 min). Concentrations of proteins in the supernatant were determined by bicinchoninic acid assay. Prior to immunoprecipitation, samples containing equal amounts of proteins were pre-cleared with Protein A/G agarose/sepharose beads (#20423, Thermo Fisher Scientific Inc.) (4° C., 3 h) and subsequently incubated with various irrelevant IgG or anti-ALK (#ab190934, Abcam) or anti-EGFR antibodies (#2232S, Cell Signaling Technology) in the presence of Protein A/G agarose/sepharose beads overnight at 4° C. with gentle shaking. Following incubation, agarose/sepharose beads were washed extensively with PBS and proteins were eluted by boiling in 2× sodium dodecyl sulfate (SDS) sample buffer before SDS-PAGE electrophoresis.

[7] = 3′3′-cGAMP or c-di-AMP 10 μg/ml

T1 sequence (P97793 19-1621): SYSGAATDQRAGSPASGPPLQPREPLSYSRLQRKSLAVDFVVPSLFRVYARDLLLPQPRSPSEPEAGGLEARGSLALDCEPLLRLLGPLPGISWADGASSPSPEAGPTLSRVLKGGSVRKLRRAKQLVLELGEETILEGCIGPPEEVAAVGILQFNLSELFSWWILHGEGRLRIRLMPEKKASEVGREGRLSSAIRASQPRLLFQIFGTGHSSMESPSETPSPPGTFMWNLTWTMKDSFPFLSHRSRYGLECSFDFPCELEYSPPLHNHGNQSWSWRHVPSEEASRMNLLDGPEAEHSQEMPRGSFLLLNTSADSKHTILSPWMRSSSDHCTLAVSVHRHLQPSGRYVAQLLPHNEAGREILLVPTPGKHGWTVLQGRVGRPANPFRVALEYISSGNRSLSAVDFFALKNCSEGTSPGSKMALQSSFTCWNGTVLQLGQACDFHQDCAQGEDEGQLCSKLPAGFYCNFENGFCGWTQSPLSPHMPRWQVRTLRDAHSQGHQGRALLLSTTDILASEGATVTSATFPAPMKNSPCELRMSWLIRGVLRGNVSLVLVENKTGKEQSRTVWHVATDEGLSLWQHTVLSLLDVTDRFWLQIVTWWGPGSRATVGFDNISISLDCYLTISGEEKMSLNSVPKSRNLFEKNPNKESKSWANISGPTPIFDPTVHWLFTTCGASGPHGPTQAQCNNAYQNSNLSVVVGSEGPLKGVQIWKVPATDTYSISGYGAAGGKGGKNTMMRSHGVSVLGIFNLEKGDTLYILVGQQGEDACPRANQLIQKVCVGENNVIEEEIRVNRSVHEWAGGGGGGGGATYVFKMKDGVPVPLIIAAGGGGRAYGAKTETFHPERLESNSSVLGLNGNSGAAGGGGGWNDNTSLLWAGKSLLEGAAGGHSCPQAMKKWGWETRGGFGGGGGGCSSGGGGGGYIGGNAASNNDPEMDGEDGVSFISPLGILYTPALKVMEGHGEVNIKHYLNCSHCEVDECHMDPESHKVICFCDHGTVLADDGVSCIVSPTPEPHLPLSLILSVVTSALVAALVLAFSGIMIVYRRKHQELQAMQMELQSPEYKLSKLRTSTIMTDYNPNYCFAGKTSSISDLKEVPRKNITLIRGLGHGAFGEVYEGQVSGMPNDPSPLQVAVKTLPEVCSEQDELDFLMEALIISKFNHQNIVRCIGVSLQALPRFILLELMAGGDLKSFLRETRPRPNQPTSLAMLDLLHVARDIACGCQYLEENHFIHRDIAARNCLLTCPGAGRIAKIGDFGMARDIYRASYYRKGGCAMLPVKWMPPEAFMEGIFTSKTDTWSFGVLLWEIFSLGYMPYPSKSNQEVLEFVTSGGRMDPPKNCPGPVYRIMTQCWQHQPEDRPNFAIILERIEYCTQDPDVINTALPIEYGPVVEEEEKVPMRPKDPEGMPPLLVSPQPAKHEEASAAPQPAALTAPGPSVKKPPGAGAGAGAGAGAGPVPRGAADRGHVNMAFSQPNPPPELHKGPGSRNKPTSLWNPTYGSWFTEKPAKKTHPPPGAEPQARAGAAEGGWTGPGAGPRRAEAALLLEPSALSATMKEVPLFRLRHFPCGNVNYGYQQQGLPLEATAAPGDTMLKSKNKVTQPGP
T1 sequence (Q01279 25-1210): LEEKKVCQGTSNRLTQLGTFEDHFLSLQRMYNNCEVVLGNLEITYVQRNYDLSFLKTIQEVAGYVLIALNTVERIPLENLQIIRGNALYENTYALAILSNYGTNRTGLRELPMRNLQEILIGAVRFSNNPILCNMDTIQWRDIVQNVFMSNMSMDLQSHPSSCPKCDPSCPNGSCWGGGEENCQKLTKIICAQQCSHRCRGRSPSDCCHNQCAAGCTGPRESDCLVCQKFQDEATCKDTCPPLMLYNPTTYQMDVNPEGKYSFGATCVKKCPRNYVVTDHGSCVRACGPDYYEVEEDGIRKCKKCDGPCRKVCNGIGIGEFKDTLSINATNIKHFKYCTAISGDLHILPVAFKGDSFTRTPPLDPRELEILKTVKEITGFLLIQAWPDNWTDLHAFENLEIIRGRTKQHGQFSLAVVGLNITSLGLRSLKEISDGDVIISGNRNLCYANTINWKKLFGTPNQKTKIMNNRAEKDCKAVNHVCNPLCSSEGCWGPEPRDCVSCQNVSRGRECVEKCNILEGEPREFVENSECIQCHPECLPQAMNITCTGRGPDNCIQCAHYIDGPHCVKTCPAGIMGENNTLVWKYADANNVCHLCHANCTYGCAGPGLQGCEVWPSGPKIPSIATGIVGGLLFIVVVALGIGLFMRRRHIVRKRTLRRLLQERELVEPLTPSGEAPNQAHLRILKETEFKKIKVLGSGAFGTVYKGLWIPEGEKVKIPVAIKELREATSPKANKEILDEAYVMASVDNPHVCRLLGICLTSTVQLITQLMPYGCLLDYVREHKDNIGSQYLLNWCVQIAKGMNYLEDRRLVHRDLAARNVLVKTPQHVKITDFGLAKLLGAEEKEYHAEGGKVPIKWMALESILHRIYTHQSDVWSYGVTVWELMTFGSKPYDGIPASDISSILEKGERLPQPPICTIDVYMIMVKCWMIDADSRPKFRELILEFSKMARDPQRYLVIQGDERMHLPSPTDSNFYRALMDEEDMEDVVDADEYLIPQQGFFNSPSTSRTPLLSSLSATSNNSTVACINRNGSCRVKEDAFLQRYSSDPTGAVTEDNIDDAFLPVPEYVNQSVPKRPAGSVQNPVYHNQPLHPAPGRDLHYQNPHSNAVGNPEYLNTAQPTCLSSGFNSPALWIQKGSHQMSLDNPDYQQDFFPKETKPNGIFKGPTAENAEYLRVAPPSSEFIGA

interaction between ALK and EGFR [4]: reduced
interaction between ALK and EGFR [6]: reduced
Structure (SMILES): C#Cc1cccc(Nc2ncnc3cc(OCCOC)c(OCCO)cc23)c1 [OSI-420]
STING ligand-induced phosphorylation of TBK1, IRF3, and p65 [1, 7]: diminished
3′3′-cGAMP- or c-di-AMP-induced phosphorylation of ALK, EGFR, and AKT ([1]; ligand 10 μg/ml): attenuated
STING ligand-induced phosphorylation of TBK1, IRF3, and p65 [2, 7]: diminished
3′3′-cGAMP- or c-di-AMP-induced phosphorylation of ALK, EGFR, and AKT ([2]; ligand 10 μg/ml): attenuated
STING ligand-induced phosphorylation of TBK1, IRF3, and p65 [3, 7]: diminished
3′3′-cGAMP- or c-di-AMP-induced phosphorylation of ALK, EGFR, and AKT ([3]; ligand 10 μg/ml): attenuated
fold increase in IFN-β release [5]: 0.14 fold
